Where two headings read alike, the source gives them in different places.
Key:
HepG2 cells [1] = assay: Oxygen consumption rate; assay type: cell-based, Human; conditions: for Relative percentage OCR 30 Sec: HepG2, 30 sec after compound at its MMP IC50; for Relative percentage OCR 30 Sec / Relative percentage OCR 1 h: basal OCR = 100%, mean ± SD; for Relative percentage OCR 1 h: HepG2, 1 h after compound at its MMP IC50
HepG2 cells [2] = assay: cells; assay type: cell-based, Human; conditions: for Compound potency (IC50) LDH Release 5 h: HepG2, 5 h treatment
[3] = test system: mitochondrial membrane potential in HepG2 cells; assay: qHTS MMP assay, primary screen; assay type: cell-based, Human; conditions: for IC50: Homo sapiens
caspase 3/7 = conditions: HepG2, 16 h; cited from earlier work
HepG2 cells [4] = conditions: HepG2, 40 h; cited from earlier work
[5] = HepG2, 1 h treatment, mean ± SD, 3 independent experiments
[6] = mean ± SD, 3 independent experiments
[7] = HepG2, compound at its MMP IC50, 30 sec and 1 h, then FCCP
[8] = read-out: Compound potency (IC50) LDH Release 1 h, HepG2, 1 h treatment, mean ± SD, 3 independent experiments
[9] = Homo sapiens, HepG2, 1 h, read-out: Compound potency (IC50) LDH Release 1 h
[10] = Homo sapiens, HepG2, 5 h, read-out: Compound potency (IC50) LDH Release 5 h

| Compound | Relative percentage OCR 30 Sec (HepG2 cells [1]) [%] | Relative percentage OCR 1 h (HepG2 cells [1]) [%] | other results |
| --- | --- | --- | --- |
| Cc1cc2nc3c(=O)[nH]c(=O)nc-3n(C[C@H](O)[C@H](O)[C@H](O)CO)c2cc1C [Riboflavin] | 103.69 ± 0.37 | 115.15 ± 0.4 |  |
| O=C1C2CC=CCC2C(=O)N1SC(Cl)(Cl)Cl (stereo not shown) [Captan] | 110.37 ± 7.97 | 128.41 ± 0.77 |  |
| Clc1ccc(C(c2ccccc2Cl)C(Cl)Cl)cc1 (stereo not shown) [o,p'-DDD (Mitotane), 1,1-dichloro-2-(o-chlorophenyl)-2-(p-chlorophenyl) ethane, reference compound] | 102.84 ± 1.36 | 114.22 ± 0.42 |  |
| Nc1cccc2c(N)cccc12 [1,5-Naphthalenediamine] | 104.68 ± 1.3 | 115.87 ± 0.7 |  |
| Nc1ccc2c(c1)C(=O)c1ccccc1C2=O [2-Aminoanthraquinone] | 97.54 ± 0.63 | 106.44 ± 0.61 |  |
| CCCCCCCCCc1ccc(O)cc1 [p -n -Nonylphenol] | 116.61 ± 6.28 | 131.32 ± 0.61 |  |
| Oc1ccc(Cl)cc1Cc1ccccc1 [o-Benzyl-p-chlorophenol] | 123.51 ± 12.67 | 126.12 ± 0.47 |  |
| O=C(Nc1ccccc1)Nc1ccccc1 [Diphenylurea] | 97.02 ± 4.18 | 143.97 ± 1.85 |  |
| COC(=O)Nc1cccc(OC(=O)Nc2cccc(C)c2)c1 [Phenmedipham] | 105.47 ± 2.71 | 130.87 ± 1.18 | Compound potency (IC50) LDH Release 1 h (HepG2 cells [2]; [5]): Inactive; Potency for cytotoxicity (LDH) compared with MMP decrease, 5 h (HepG2 cells [2]; HepG2, 5 h): more potent for cytotoxicity than for MMP disruption; Compound potency (IC50) LDH Release 5 h (HepG2 cells [2]; [6]): Inconclusive |
| c1ccc(Nc2ccc3ccccc3c2)cc1 [N-Phenyl-2-naphthylamine] | 103.45 ± 2.35 | 120.42 ± 0.94 |  |
| CC(C)(c1ccccc1)c1ccc(O)cc1 [4-Cumylphenol] | 111.24 ± 4.51 | 121.31 ± 0.33 |  |
| CN(C)c1ccc(C(=C2C=CC(=[N+](C)C)C=C2)c2ccccc2)cc1.CN(C)c1ccc(C(=C2C=CC(=[N+](C)C)C=C2)c2ccccc2)cc1.O=C(O)C(=O)O.O=C([O-])C(=O)O.O=C([O-])C(=O)O [Malachite green oxalate] | 163.81 ± 17.5 | 97.14 ± 3.09 | Primary screen outcome (MMP decrease) 1 h [3]: positive; Primary screen outcome (MMP decrease) 5 h [3]: positive; Compound potency (IC50) LDH Release 1 h (HepG2 cells [2]; [5]): Inactive; Compound potency (IC50) LDH Release 5 h (HepG2 cells [2]; [6]): cytotoxic; Effect on OCR / FCCP-uncoupled OCR (in words) (HepG2 cells [1]; [7]): immediate uncoupling; induction of caspase 3/7 (caspase 3/7): induced caspase 3/7 |
| Nc1ccc(O)cc1 [p-Aminophenol] | 100.52 ± 5.81 | 158.18 ± 3.31 |  |
| COc1cc(/C=C/C(=O)CC(=O)/C=C/c2ccc(O)c(OC)c2)ccc1O [Curcumin] | 86 ± 3.54 | 94.85 ± 0.67 | Effect on OCR / FCCP-uncoupled OCR (in words) (HepG2 cells [1]; [7]): significantly suppressed the FCCP uncoupled rates |
| CC1=C(/C=C/C(C)=C/C=C/C(C)=C/C(=O)Nc2ccc(O)cc2)C(C)(C)CCC1 [4-Hydroxyphenyl retinamide] | 96.31 ± 1.42 | 98.83 ± 0.42 | Effect on OCR / FCCP-uncoupled OCR (in words) (HepG2 cells [1]; [7]): significantly suppressed the FCCP uncoupled rates |
| Cc1cc(O)c(C(C)(C)C)cc1Sc1cc(C(C)(C)C)c(O)cc1C [4,4-Thiobis(6-t-butyl-m-cresol)] | 106.32 ± 4 | 127.15 ± 1.52 | Compound potency (IC50) LDH Release 1 h (HepG2 cells [2]; [5]): Inactive; Compound potency (IC50) LDH Release 5 h (HepG2 cells [2]; [6]): Inconclusive |
| CCCCCCCC[N+](CCCCCCCC)(CCCCCCCC)CCCCCCCC.[Br-] [tetra-N-Octylammonium bromide] | 122.56 ± 40.61 | 215.53 ± 1.14 | IC50 (HepG2 cells [2]; [8]): 35.4 ± 12.6 µM |
| Oc1ccc(/C=C/c2cc(O)cc(O)c2)cc1 [Resveratrol] | 100.5 ± 0.73 | 110.92 ± 0.36 |  |
| C[C@H]1CCCC(=O)CCC/C=C/c2cc(O)cc(O)c2C(=O)O1 [Zearalenone] | 77.68 ± 2.39 | 109.62 ± 0.57 | Effect on OCR / FCCP-uncoupled OCR (in words) (HepG2 cells [1]; [7]): depressed both basal and FCCP uncoupled rates |

| Compound | Relative percentage OCR 30 Sec (HepG2 cells [1]) [%] | Relative percentage OCR 1 h (HepG2 cells [1]) [%] | other results |
| --- | --- | --- | --- |
| Oc1ccc(Cl)cc1Cc1cc(Cl)ccc1O [2,2'-Methylenebis-(4-chlorophenol)] | 170.42 ± 33.35 | 168.27 ± 1.85 |  |
| O=C=Nc1ccc(Cl)c(Cl)c1 [3,4-Dichlorophenyl isocyanate] | 102.45 ± 10.76 | 236.03 ± 4.84 |  |
| Cc1cc(O)c2c(c1)C(=O)c1cc(O)cc(O)c1C2=O [Emodin] | 235.59 ± 56.54 | 210.48 ± 1.83 | Effect on OCR / FCCP-uncoupled OCR (in words) (HepG2 cells [1]; [7]): acted as uncouplers; cytotoxicity at 40 h (HepG2 cells [4]): cytotoxic |
| C[C@@H]1CC[C@@]2(OC1)O[C@H]1[C@@H](O)[C@H]3[C@@H]4CC[C@H]5C[C@@H](O[C@@H]6O[C@H](CO)[C@H](O[C@@H]7O[C@H](CO)[C@@H](O)[C@H](O[C@@H]8OC[C@@H](O)[C@H](O)[C@H]8O)[C@H]7O[C@@H]7O[C@H](CO)[C@H](O)[C@H](O[C@@H]8O[C@H](CO)[C@@H](O)[C@H](O)[C@H]8O)[C@H]7O)[C@H](O)[C@H]6O)[C@H](O)C[C@]5(C)[C@H]4CC[C@]3(C)[C@H]1[C@@H]2C [Digitonin] | 57.25 ± 6.4 | 54.89 ± 0.48 | IC50 (HepG2 cells [2]; [9]): 45.1 ± 8.43 µM; IC50 (HepG2 cells [2]; [10]): 45.1 ± 8.43 µM; Effect on OCR / FCCP-uncoupled OCR (in words) (HepG2 cells [1]; [7]): depressed both basal and FCCP uncoupled rates |
| O=c1cc(-c2ccc(O)cc2)oc2cc(O)cc(O)c12 [Apigenin] | 99.69 ± 1.13 | 107.51 ± 0.16 | Effect on OCR / FCCP-uncoupled OCR (in words) (HepG2 cells [1]; [7]): did not affect the OCR or the FCCP-uncoupled OCR; cytotoxicity at 40 h (HepG2 cells [4]): the only exception |
| CN(C)c1ccc(N=NS(=O)(=O)O)cc1 [Formulated fenaminosulf (Dexon), fenaminosulf] | 102.48 ± 0.9 | 110.45 ± 0.28 |  |
| N#CC(C#N)=NNc1ccc(OC(F)(F)F)cc1 [FCCP, Carbonyl cyanide 4-(trifluoromethoxy)phenylhydrazone, reference compound] |  |  | IC50 ([3]; HepG2, 1 h, read-out: mean IC50 of positive control, 1 h): 810 ± 200 nM; IC50 ([3]; HepG2, 5 h, read-out: mean IC50 of positive control, 5 h): 1280 ± 320 nM |
| O=c1c(O)c(-c2ccc(O)cc2)oc2cc(O)cc(O)c12 [Kaempferol] | 118.63 ± 4.29 | 138.85 ± 1.28 | Compound potency (IC50) LDH Release 1 h (HepG2 cells [2]; [5]): Inactive; Compound potency (IC50) LDH Release 5 h (HepG2 cells [2]; [6]): Inconclusive; Effect on OCR / FCCP-uncoupled OCR (in words) (HepG2 cells [1]; [7]): acted as an uncoupler |
| Oc1cc(Cl)c(Cl)c(Cl)c1 [3,4,5-Trichlorophenol] | 163.21 ± 18.34 | 173.49 ± 1.32 |  |
| Oc1ccc(Cl)cc1Sc1cc(Cl)ccc1O [2,2'-Thiobis(4-chlorophenol)] | 273.19 ± 70.36 | 191.27 ± 0.92 |  |
| CC(=O)Oc1ccccc1C(=O)Nc1ncc([N+](=O)[O-])s1 [Nitazoxanide, reference compound] | 277.15 ± 15.64 | 199.34 ± 2.37 |  |
| Oc1c(Cl)cc(Cl)c(Cl)c1Cc1c(O)c(Cl)cc(Cl)c1Cl [Hexachlorophene] | 201.72 ± 51.19 | 175.25 ± 1.35 |  |
| O=C1C2(Cl)C3(Cl)C4(Cl)C(Cl)(Cl)C5(Cl)C3(Cl)C1(Cl)C5(Cl)C24Cl (stereo not shown) [Kepone] | 139.53 ± 5.8 | 140.71 ± 0.96 | IC50 (HepG2 cells [2]; [9]): 49.1 ± 12.3 µM; IC50 (HepG2 cells [2]; [10]): 58.4 ± 3.95 µM |
| O=C1c2c(O)ccc([N+](=O)[O-])c2C(=O)c2c([N+](=O)[O-])ccc(O)c21 [1,8-Dihydroxy-4,5-dinitroanthraquinone] | 144.03 ± 7.3 | 150.09 ± 1.27 | Effect on OCR / FCCP-uncoupled OCR (in words) (HepG2 cells [1]; [7]): acted as uncouplers; cytotoxicity at 40 h (HepG2 cells [4]): cytotoxic |
| O=c1c(-c2ccc(O)cc2)coc2cc(O)cc(O)c12 [Genistein (4',5,7-Trihydroxyisoflavone), 4',5,7-Trihydroxyisoflavone] | 90.18 ± 3.05 | 105.21 ± 0.19 |  |
| CC(=O)[O][Hg][c]1ccccc1 [Phenyl mercuric acetate] | 67.6 ± 5.55 | 51.54 ± 0.26 | IC50 (HepG2 cells [2]; [8]): 68.1 ± 4.44 µM; Effect on OCR / FCCP-uncoupled OCR (in words) (HepG2 cells [1]; [7]): depressed both basal and FCCP uncoupled rates |
| Cl.N=C1C=CC(=C(c2ccc(N)cc2)c2ccc(N)cc2)C=C1 [Basic red 9 (p-Rosaniline HCl), p-Rosaniline HCl] | −9.78 ± 16.86 | 35.74 ± 2.42 | Compound potency (IC50) LDH Release 5 h (HepG2 cells [2]; [6]): negative; induction of caspase 3/7 (caspase 3/7): negative |
| CC/C(=C(/CC)c1ccc(O)cc1)c1ccc(O)cc1 [Diethylstilbestrol [DES], Diethylstilbestrol, reference compound] |  |  | Effect on OCR / FCCP-uncoupled OCR (in words) (HepG2 cells [1]): depressed both basal and FCCP uncoupled rates |

Reference: paper PMC4154066 (Chemical research in toxicology, 2013)
